Reference: ChEMBL document CHEMBL5505992, “Novel membrane-targeting isoxanthohumol-amine conjugates for combating methicillin-resistant Staphylococcus aureus (MRSA) infections” (Eur J Med Chem, 2024)

Experiments:
Staphylococcus aureus [1] = assay: Antibacterial activity against methicillin-resistant Staphylococcus aureus clinical isolate MRSA-11 measured after 16 to 18 hrs by CLSI method; assay type: functional; conditions: time 16-18 hrs
[2] = Hemolytic activity in sheep erythrocytes incubated for 1 hr by absorbance based analysis; assay type: toxicity, cell-based, Ovis aries, Erythrocyte
Staphylococcus aureus [3] = assay: Antibacterial activity against methicillin-resistant Staphylococcus aureus clinical isolate MRSA-13 measured after 16 to 18 hrs by CLSI method; assay type: functional; conditions: time 16-18 hrs
Staphylococcus aureus [4] = assay: Antibacterial activity against methicillin-resistant Staphylococcus aureus clinical isolate MRSA-17 measured after 16 to 18 hrs by CLSI method; assay type: functional; conditions: time 16-18 hrs
Staphylococcus aureus [5] = assay: Antibacterial activity against methicillin-resistant Staphylococcus aureus clinical isolate MRSA-22 measured after 16 to 18 hrs by CLSI method; assay type: functional; conditions: time 16-18 hrs
[6] = Selectivity index, ratio of HC50 for hemolytic activity in sheep erythrocytes to MIC for antibacterial activity against Staphylococcus aureus ATCC 29213; assay type: toxicity, cell-based; conditions: read-out: Selectivity Index
Staphylococcus aureus [7] = assay: Antibacterial activity against methicillin-resistant Staphylococcus aureus clinical isolate MRSA-16 measured after 16 to 18 hrs by CLSI method; assay type: functional; conditions: time 16-18 hrs
Staphylococcus aureus [8] = assay: Antibacterial activity against Staphylococcus aureus ATCC 29213 measured after 16 to 18 hrs by CLSI method; assay type: functional; conditions: time 16-18 hrs
Staphylococcus aureus [9] = assay: Antibacterial activity against methicillin-resistant Staphylococcus aureus clinical isolate MRSA-23 measured after 16 to 18 hrs by CLSI method; assay type: functional; conditions: time 16-18 hrs
Staphylococcus aureus [10] = assay: Antibacterial activity against methicillin-resistant Staphylococcus aureus clinical isolate MRSA-18 measured after 16 to 18 hrs by CLSI method; assay type: functional; conditions: time 16-18 hrs
Staphylococcus aureus [11] = assay: Antibacterial activity against methicillin-resistant Staphylococcus aureus clinical isolate MRSA-21 measured after 16 to 18 hrs by CLSI method; assay type: functional; conditions: time 16-18 hrs
Staphylococcus aureus [12] = assay: Antibacterial activity against methicillin-resistant Staphylococcus aureus clinical isolate MRSA-20 measured after 16 to 18 hrs by CLSI method; assay type: functional; conditions: time 16-18 hrs
Staphylococcus aureus [13] = assay: Antibacterial activity against methicillin-resistant Staphylococcus aureus clinical isolate MRSA-14 measured after 16 to 18 hrs by CLSI method; assay type: functional; conditions: time 16-18 hrs
Escherichia coli = assay: Antibacterial activity against Escherichia coli ATCC25922 measured after 16 to 18 hrs by CLSI method; assay type: functional; conditions: time 16-18 hrs

CCCCN(CCCC)CCCCCOc1ccc(C2CC(=O)c3c(OC)cc(OCCCCCN(CCCC)CCCC)c(CC=C(C)C)c3O2)cc1 (configuration not stated)
8 µg/mL: MIC (Staphylococcus aureus [1]) | MIC (Staphylococcus aureus [5]) | MIC (Staphylococcus aureus [9]) | MIC (Staphylococcus aureus [10]) | MIC (Staphylococcus aureus [11])
980 µg/mL: HC50 at 1 h [2]
> 128 µg/mL: MIC (Escherichia coli)
4 µg/mL: MIC (Staphylococcus aureus [3]) | MIC (Staphylococcus aureus [4]) | MIC (Staphylococcus aureus [7]) | MIC (Staphylococcus aureus [8]) | MIC (Staphylococcus aureus [12]) | MIC (Staphylococcus aureus [13])
245: selectivity ratio [6]

COc1cc(O)c(CC=C(C)C)c2c1C(=O)CC(c1ccc(O)cc1)O2 (configuration not stated) [ISOXANTHOHUMOL]
> 320 µg/mL: HC50 at 1 h [2]
64 µg/mL: MIC (Staphylococcus aureus [1]) | MIC (Staphylococcus aureus [5]) | MIC (Staphylococcus aureus [7]) | MIC (Staphylococcus aureus [9]) | MIC (Staphylococcus aureus [11]) | MIC (Staphylococcus aureus [12])
> 64 µg/mL: MIC (Staphylococcus aureus [3]) | MIC (Staphylococcus aureus [4]) | MIC (Staphylococcus aureus [8]) | MIC (Staphylococcus aureus [10]) | MIC (Staphylococcus aureus [13]) | MIC (Escherichia coli)

COc1cc(OCCCCCN2CCCCC2C)c(CC=C(C)C)c2c1C(=O)CC(c1ccc(OCCCCCN3CCCCC3C)cc1)O2 (configuration not stated)
8 µg/mL: MIC (Staphylococcus aureus [4]) | MIC (Staphylococcus aureus [7]) | MIC (Staphylococcus aureus [11])
16 µg/mL: MIC (Staphylococcus aureus [1]) | MIC (Staphylococcus aureus [3]) | MIC (Staphylococcus aureus [5]) | MIC (Staphylococcus aureus [9]) | MIC (Staphylococcus aureus [10]) | MIC (Staphylococcus aureus [12]) | MIC (Staphylococcus aureus [13])
9.1: selectivity ratio [6]
32 µg/mL: MIC (Staphylococcus aureus [8])
292 µg/mL: HC50 at 1 h [2]
> 128 µg/mL: MIC (Escherichia coli)

COc1cc(OCCCN2CCSCC2)c(CC=C(C)C)c2c1C(=O)CC(c1ccc(OCCCN3CCSCC3)cc1)O2 (configuration not stated)
> 640 µg/mL: HC50 at 1 h [2]
> 128 µg/mL: MIC (Staphylococcus aureus [1]) | MIC (Staphylococcus aureus [3]) | MIC (Staphylococcus aureus [4]) | MIC (Staphylococcus aureus [5]) | MIC (Staphylococcus aureus [7]) | MIC (Staphylococcus aureus [8]) | MIC (Staphylococcus aureus [9]) | MIC (Staphylococcus aureus [10]) | MIC (Staphylococcus aureus [11]) | MIC (Staphylococcus aureus [12]) | MIC (Staphylococcus aureus [13]) | MIC (Escherichia coli)

COc1cc(OCCCCCN(CC(C)C)CC(C)C)c(CC=C(C)C)c2c1C(=O)CC(c1ccc(OCCCCCN(CC(C)C)CC(C)C)cc1)O2 (configuration not stated)
> 1280 µg/mL: HC50 at 1 h [2]
> 128 µg/mL: MIC (Staphylococcus aureus [1]) | MIC (Staphylococcus aureus [3]) | MIC (Staphylococcus aureus [4]) | MIC (Staphylococcus aureus [5]) | MIC (Staphylococcus aureus [7]) | MIC (Staphylococcus aureus [8]) | MIC (Staphylococcus aureus [9]) | MIC (Staphylococcus aureus [10]) | MIC (Staphylococcus aureus [11]) | MIC (Staphylococcus aureus [12]) | MIC (Staphylococcus aureus [13]) | MIC (Escherichia coli)
